≈ marks a conversion by molar mass, not a printed value.
Experiments:
Assay type in all cases: functional
[1] = system: P388; test: Cytotoxicity against mouse P388 cells after 72 hrs by MTT assay; settings: P388, 72 h, read-out: ED50 (the source's name)
[2] = system: HL-60; test: Cytotoxicity against human HL60 cells after 72 hrs by MTT assay; settings: HL-60, 72 h, read-out: ED50 (the source's name)
[3] = system: HL-60; test: Potency index, ratio of ED50 for Ascidiacyclamide to ED50 test compound against human HL60 cells after 72 hrs by MTT assay
[4] = system: P388; test: Cytotoxicity against mouse P388 cells after 72 hrs by MTT assay relative to Ascidiacyclamide

Row | Compound | EC50 [1] [µg/mL] | EC50 [2] [µg/mL] | Ratio ED50 [3] | Activity [4] [%]
1 | CC[C@H](C)[C@@H]1NC(=O)c2csc(n2)[C@@H](C(C)C)NC(=O)[C@@H]2CCCN2C(=O)[C@H]([C@@H](C)CC)NC(=O)c2csc(n2)[C@@H](C(C)C)NC(=O)[C@@H]2CCCN2C1=O | 19.4 (≈ 24.7 µM) | 10.4 (≈ 13.2 µM) | 3 | –
2 | CC[C@H](C)[C@@H]1NC(=O)c2csc(n2)[C@@H](C(C)C)NC(=O)[C@@H]2CCN2C(=O)[C@H]([C@@H](C)CC)NC(=O)c2csc(n2)[C@@H](C(C)C)NC(=O)[C@@H]2CCN2C1=O | > 100 | > 100 | – | –
3 | CC[C@H](C)[C@@H]1NC(=O)c2csc(n2)[C@@H](C(C)C)NC(=O)[C@@H]2C=CCN2C(=O)[C@H]([C@@H](C)CC)NC(=O)c2csc(n2)[C@@H](C(C)C)NC(=O)[C@@H]2C=CCN2C1=O | > 100 | > 100 | – | –
4 | CC[C@H](C)[C@@H]1NC(=O)c2csc(n2)[C@@H](C(C)C)NC(=O)[C@@H]2CCCCN2C(=O)[C@H]([C@@H](C)CC)NC(=O)c2csc(n2)[C@@H](C(C)C)NC(=O)[C@@H]2CCCCN2C1=O | 15.8 (≈ 19.4 µM) | 15 (≈ 18.4 µM) | 2 | 66
5 | CC[C@H](C)[C@@H]1NC(=O)c2csc(n2)[C@@H](C(C)C)NC(=O)[C@H]2N=C(O[C@@H]2C)[C@H]([C@@H](C)CC)NC(=O)c2csc(n2)[C@@H](C(C)C)NC(=O)[C@H]2N=C1O[C@@H]2C [ASCIDIACYCLAMIDE] | 10.5 (≈ 13.9 µM) | – | – | –

— ChEMBL document CHEMBL4177647, “Conformational properties of ascydiacyclamide analogues with cyclic α-amino acids instead of oxazoline residues” (2017)
